# According to US6869946B2, “Substituted azabicyclic moieties for the treatment of disease” (Pfizer Inc, priority 2001, dated 2005):
# Molecular target: T1, α7 nAChR (Rattus norvegicus, UniProt Q05941)
# T1 construct: brains (whole brain minus cerebellum) are dissected quickly, weighed and homogenized; from tissue; host or cells: rat brain (whole brain minus cerebellum) membranes
# Test: [3H]-MLA competition binding assay in rat brain membranes
# Conditions: inhibition of [3H]-MLA binding, rat brain homogenate (whole brain minus cerebellum), Cheng-Prusoff
# Procedure: Materials and Methods for Identifying Binding Constants:
# Membrane Preparation. Male Sprague-Dawley rats (300-350 g) are sacrificed by decapitation and the brains (whole brain minus cerebellum) are dissected quickly, weighed and homogenized in 9 volumes/g wet weight of ice-cold 0.32 M sucrose using a rotating pestle on setting 50 (10 up and down strokes). The homogenate is centrifuged at 1,000× g for 10 minutes at 4° C. The supernatant is collected and centrifuged at 20,000× g for 20 minutes at 4° C. The resulting pellet is resuspended to a protein concentration of 1-8 mg/mL. Aliquots of 5 mL homogenate are frozen at −80° C. until needed for the assay. On the day of the assay, aliquots are thawed at room temperature and diluted with Kreb's—20 mM Hepes buffer pH 7.0 (at room temperature) containing 4.16 mM NaHCO3, 0.44 mM KH2PO4, 127 MM NaCl, 5.36 mM KCl, 1.26 mM CaCl2, and 0.98 mM MgCl2, so that 25-150 μg protein are added per test tube. Protein concentration is determined by the Bradford method (Bradford, M. M., Anal. Biochem., 72, 248-254, 1976) using bovine serum albumin as the standard.
# Binding Assay. For saturation studies, 0.4 mL homogenate are added to test tubes containing buffer and various concentrations of radioligand, and are incubated in a final volume of 0.5 mL for 1 hour at 25° C. Nonspecific binding was determined in tissues incubated in parallel in the presence of 1 μM MLA, added before the radioligand. In competition studies, drugs are added in increasing concentrations to the test tubes before addition of approximately 3.0 to 4.0 nM [^3H]-MLA. The incubations are terminated by rapid vacuum filtration through Whatman GF/B glass filter paper mounted on a 48 well Brandel cell harvester. Filters are pre-soaked in 50 mM Tris HCl pH 7.0-0.05% polyethylenimine. The filters are rapidly washed two times with 5 mL aliquots of cold 0.9% saline and then counted for radioactivity by liquid scintillation spectrometry.
# Data Analysis. In competition binding studies, the inhibition constant (Ki) was calculated from the concentration dependent inhibition of [^3H]-MLA binding obtained from non-linear regression fitting program according to the Cheng-Prusoff equation (Cheng, Y. C. and Prussoff, W. H., Biochem. Pharmacol., 22, p. 3099-3108, 1973). Hill coefficients were obtained using non-linear regression (GraphPad Prism sigmoidal dose-response with variable slope).
# T1 sequence (Q05941 23-502): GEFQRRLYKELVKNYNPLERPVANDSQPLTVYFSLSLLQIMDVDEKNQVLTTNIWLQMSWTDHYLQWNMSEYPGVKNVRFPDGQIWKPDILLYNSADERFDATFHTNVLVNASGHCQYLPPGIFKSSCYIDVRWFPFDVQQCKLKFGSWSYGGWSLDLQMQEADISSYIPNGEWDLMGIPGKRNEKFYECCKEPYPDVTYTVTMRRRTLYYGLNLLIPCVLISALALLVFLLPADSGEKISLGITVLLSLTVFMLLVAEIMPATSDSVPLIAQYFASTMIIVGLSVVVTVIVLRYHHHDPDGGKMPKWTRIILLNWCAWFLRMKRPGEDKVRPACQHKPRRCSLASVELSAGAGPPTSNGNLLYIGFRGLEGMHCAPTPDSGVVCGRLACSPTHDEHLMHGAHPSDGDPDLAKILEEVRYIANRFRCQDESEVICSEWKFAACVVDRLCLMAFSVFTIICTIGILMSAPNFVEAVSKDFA
row,Structure (SMILES),Ki [nM]
1,"O=C(N[C@@H]1C[C@H]2CCN(C2)C1)c1ccc(Cl)cc1 [Example 3 (3R, 5R), (3R,5R)-N-(1-azabicyclo[3.2.1]oct-3-yl)-4-chlorobenzamide 4-methylbenzenesulfonate]",18
2,"O=C(N[C@H]1C[C@@H]2CCN(C2)C1)c1ccc(Cl)cc1 [Example 3 (3S, 5S), (3S,5S)-N-(1-azabicyclo[3.2.1]oct-3-yl)-4-chlorobenzamide 4-methylbenzenesulfonate]",> 1000
3,"C[C@H]1[C@H](NC(=O)c2ccc(Cl)cc2)C2CCN1CC2 [Example 1(b)(i), 4-chloro-N-[(2S,3R)-2-methyl-1-azabicyclo[2.2.2]oct-3-yl]benzamide 4-methylbenzenesulfonate]",65 to 140
4,"O=C(NC1CC2CCN(C2)C1)c1ccc(Cl)cc1 (racemic) [Example 3 (racemic), Exo-N-[1-azabicyclo[3.2.1]oct-3-yl]-4-chlorobenzamide 4-methylbenzenesulfonate]",115
5,O=C(N[C@H]1CN2CCC1CC2)c1ccc(Cl)cc1 [Example 1(a)],26
